Measurements published in US8426602B2, “Heteroaryl-substituted dicyanopyridines and their use” (Bayer Intellectual Property GmbH, priority 2008, dated 2013).
pEC50, pIC50: −log10 of the molar value.

What was measured:
Assay type in all cases: cell-based
[1] = biological target: T1, adenosine A2a receptor (Homo sapiens, UniProt P29274); experiment: Indirect determination of adenosine agonism by way of gene expression (luciferase), A2a cells; conditions: stably transfected CHO cells; 50% of maximum stimulation of luciferase
T1 construct: expressed in transfected cells; host or cells: CHO (Chinese Hamster Ovary)
Description: (§1) B-1. Indirect Determination of the Adenosine Agonism by Way of Gene Expression
(§2) Cells of the CHO (Chinese Hamster Ovary) permanent line are transfected stably with the cDNA for the adenosine receptor subtypes A1, A2a and A2b. The adenosine A1 receptors are coupled to the adenylate cyclase by way of Gi proteins, while the adenosine A2a and A2b receptors are coupled by way of Gs proteins. In correspondence with this, the formation of cAMP in the cell is inhibited or stimulated, respectively. After that, expression of the luciferase is modulated by way of a cAMP-dependent promoter. The luciferase test is optimized, with the aim of high sensitivity and reproducibility, low variance and good suitability for implementation on a robot system, by varying several test parameters, such as cell density, duration of the growth phase and the test incubation, forskolin concentration and medium composition. The following test protocol is used for pharmacologically characterizing cells and for the robot-assisted substance screening:
(§3) The stock cultures are grown, at 37° C. and under 5% CO2, in DMEM/F12 medium containing 10% FCS (fetal calf serum) and in each case split 1:10 after 2-3 days. Test cultures are seeded in 384-well plates with 2000 cells per well and grown at 37° C. for approx. 48 hours. The medium is then replaced with a physiological sodium chloride solution (130 mM sodium chloride, 5 mM potassium chloride, 2 mM calcium chloride, 20 mM HEPES, 1 mM magnesium chloride hexahydrate, 5 mM sodium bicarbonate, pH 7.4). The substances to be tested, which are dissolved in DMSO, are pipetted into the test cultures (maximum final concentration of DMSO in the test mixture: 0.5%) in a dilution series of from 5×10^−11 M to 3×10^−6 M (final concentration). 10 minutes later, forskolin is added to the A1 cells and all the cultures are subsequently incubated at 37° C. for four hours. After that, 35 μl of a solution which is composed of 50% lysis reagent (30 mM disodium hydrogenphosphate, 10% glycerol, 3% TritonX100, 25 mM TrisHCl, 2 mM dithiotreitol (DTT), pH 7.8) and 50% luciferase substrate solution (2.5 mM ATP, 0.5 mM luciferin, 0.1 mM coenzyme A, 10 mM tricine, 1.35 mM magnesium sulfate, 15 mM DTT, pH 7.8) are added to the test cultures, which are shaken for approx. 1 minute and the luciferase activity is measured using a camera system. The EC50 values are determined, i.e., the concentrations at which 50% of the luciferase response is inhibited in the case of the A1 cell, and, respectively, 50% of the maximum stimulation with the corresponding substance is achieved in the case of the A2b and A2a cells. […] Pharmacol., 357, 1-9 (1998)).

[2] = biological target: T2, adenosine A1 receptor (Homo sapiens, UniProt P30542); experiment: Indirect determination of adenosine agonism by way of gene expression (luciferase), A1 cells; conditions: stably transfected CHO cells; 1 μM forskolin; 50% inhibition of luciferase response
T2 construct: expressed in transfected cells; host or cells: CHO (Chinese Hamster Ovary)
T2 sequence (P30542 1-326): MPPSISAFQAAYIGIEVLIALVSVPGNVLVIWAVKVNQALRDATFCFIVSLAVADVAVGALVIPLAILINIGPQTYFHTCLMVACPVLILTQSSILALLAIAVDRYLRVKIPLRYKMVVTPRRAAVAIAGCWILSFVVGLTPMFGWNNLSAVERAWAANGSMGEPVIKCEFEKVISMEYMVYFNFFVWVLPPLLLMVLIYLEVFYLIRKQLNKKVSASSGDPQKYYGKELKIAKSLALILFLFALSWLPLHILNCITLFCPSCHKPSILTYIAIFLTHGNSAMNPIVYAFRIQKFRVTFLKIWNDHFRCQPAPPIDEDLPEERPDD
Description: as §1, §2, §3

[3] = biological target: T3, adenosine A2b receptor (Homo sapiens, UniProt P29275); experiment: Indirect determination of adenosine agonism by way of gene expression (luciferase), A2b cells; conditions: stably transfected CHO cells; 50% of maximum stimulation of luciferase
T3 construct: expressed in transfected cells; host or cells: CHO (Chinese Hamster Ovary)
T3 sequence (P29275 1-332): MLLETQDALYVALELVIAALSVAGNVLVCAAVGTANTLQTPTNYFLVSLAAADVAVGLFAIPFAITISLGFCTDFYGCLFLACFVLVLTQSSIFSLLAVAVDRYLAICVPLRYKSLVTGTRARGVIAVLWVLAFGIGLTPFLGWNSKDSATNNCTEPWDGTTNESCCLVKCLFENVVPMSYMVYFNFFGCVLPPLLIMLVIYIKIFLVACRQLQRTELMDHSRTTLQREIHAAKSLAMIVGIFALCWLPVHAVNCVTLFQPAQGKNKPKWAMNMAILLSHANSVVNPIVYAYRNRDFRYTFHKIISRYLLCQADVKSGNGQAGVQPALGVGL
Description: as §1, §2, §3

[4] = biological target: T4, adenosine receptor subtype A2a (Homo sapiens, UniProt P29274); experiment: Indirect determination of adenosine antagonism via gene expression (CRE luciferase), A2a cells; conditions: table after B-5; CHO K1 A2a cells; agonist 30 nM NECA
T4 construct: expressed in transfected cells; host or cells: CHO K1
Description: (§4) B-5. Indirect Determination of Adenosine Antagonism Via Gene Expression
(§5) Cells of the permanent line CHO K1 (Chinese Hamster Ovary) are stably transfected with a reporter construct (CRE luciferase) and the cDNA for the adenosine receptor subtype A2a or A2b. A2a or A2b receptors are coupled via Gas proteins to the adenylate cyclase. Through receptor activation, the adenylate cyclase is activated and therefore the cAMP level in the cell increases. Via the reporter construct, a cAMP-dependent promoter, the change in the cAMP level is coupled to luciferase expression.
(§6) The permanent cell lines are cultured in DMEM/F12 (Cat.No. BE04-687Q; BioWhittaker) with 10% FCS (fetal calf serum) and various additives (20 ml/liter 1 M HEPES (Cat. No. 15630; Gibco), 20 ml/liter GlutaMAX (Cat. No. 35050-038, Gibco), 14 ml/liter MEM sodium pyruvate (Cat. No. 11360-039; Gibco) 10 ml/liter PenStrep (Cat. No. 15070-063; Gibco)) at 37° C. under 5% carbon dioxide, and split twice weekly.
(§7) For testing in the 384-well plate format, the cells are sown at 2000 cells/well in 25 μl/well sowing medium and cultured at 37° C. under 5% carbon dioxide until substance testing. […] The luciferase activity is detected with a luminescence reader. […]

[5] = biological target: T5, adenosine receptor subtype A2b (Homo sapiens, UniProt P29275); experiment: Indirect determination of adenosine antagonism via gene expression (CRE luciferase), A2b cells; conditions: table after B-5; CHO K1 A2b cells; agonist 30 nM NECA
T5 construct: expressed in transfected cells; host or cells: CHO K1
T5 sequence (P29275 1-332): T3 sequence (P29275 1-332)
Description: as §4, §5, §6, §7

[6] = biological target: T6, adenosine receptor subtype A1 (A1-Gα 16 fusion construct) (Homo sapiens, UniProt P30542); experiment: Indirect determination of adenosine antagonism via gene expression (NFAT luciferase), A1-Gα16 cells; conditions: CHO K1 A1-Gα16 cells; agonist 25 nM CPA
T6 construct: "an A1-Gα 16 fusion construct
T6 sequence (P30542 1-326): T2 sequence (P30542 1-326)
Description: as §4
For determination of adenosine antagonism on the adenosine receptor subtype A1, once again CHO K1 cells are stably transfected, but this time with a Ca^2+-sensitive reporter construct (NFAT-TA-Luc; Clontech) and an A1-Gα 16 fusion construct. This receptor chimera is, in contrast to the native A1 receptor (Gαi-coupling), coupled to the phospholipase C. The luciferase is expressed here as a function of the cytosolic Ca^2+concentration.
as §6
as §7, with “testing. The A2a and A2b cells are sown, 24 h before substance testing, in medium with additives and 5% FCS, the base medium used for the A2a cells being DMEM/F12 and the base medium used for the A2b cells being OptiMEM (Cat. No. 31985-047; Gibco).” for “testing.”

T1 sequence (P29274 whole entry): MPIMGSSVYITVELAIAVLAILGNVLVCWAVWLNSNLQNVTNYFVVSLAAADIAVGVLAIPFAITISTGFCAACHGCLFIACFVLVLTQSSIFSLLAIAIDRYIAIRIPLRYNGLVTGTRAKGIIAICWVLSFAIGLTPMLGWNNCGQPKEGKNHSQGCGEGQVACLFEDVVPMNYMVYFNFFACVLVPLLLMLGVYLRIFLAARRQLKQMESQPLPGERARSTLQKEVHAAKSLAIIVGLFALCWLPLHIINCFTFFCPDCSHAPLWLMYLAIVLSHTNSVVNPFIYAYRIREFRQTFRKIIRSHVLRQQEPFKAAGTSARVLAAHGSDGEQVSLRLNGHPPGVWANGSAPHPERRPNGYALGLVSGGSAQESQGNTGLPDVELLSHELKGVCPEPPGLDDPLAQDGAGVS
T4 sequence (P29274 whole entry): as above

pEC50 [1] | EC50 [2] [nM] | pEC50 [3] | pEC50 [4] | pEC50 [5] | pIC50 [6] | SMILES
5.52 | 0.5 | 5.80 | – | – | – | N#Cc1c(N)nc(SCc2csc(-c3ccc(Cl)cc3)n2)c(C#N)c1-c1cscn1 [Example 1, 2-Amino-6-([2-(4-chlorophenyl)-1,3-thiazol-4-yl]methylsulfanyl)-4-(1,3-thiazol-4-yl)pyridine-3,5-dicarbonitrile]
5.52 | 0.9 | 5.52 | – | – | – | N#Cc1c(N)nc(SCc2coc(-c3ccc(Cl)cc3)n2)c(C#N)c1-c1cncs1 [Example 4, 2-Amino-6-([2-(4-chlorophenyl)-1,3-oxazol-4-yl]methylsulfanyl)-4-(1,3-thiazol-5-yl)pyridine-3,5-dicarbonitrile]
6.56 | 1.2 | 6.15 | – | – | – | N#Cc1c(N)nc(SCc2csc(-c3ccc(Cl)cc3)n2)c(C#N)c1-c1cnc[nH]1 [Example 8]
5.52 | 2.4 | 5.52 | – | – | – | N#Cc1c(N)nc(SCc2coc(-c3ccc(Cl)cc3)n2)c(C#N)c1-c1cn[nH]c1 [Example 12]
– | – | – | ≤ 4.30 | 7.40 | 9.30 | CNC(=O)c1cc(CSc2nc(N)c(C#N)c(-c3cc[nH]n3)c2C#N)ccn1 [Example 15]
5.52 | 0.4 | 5.52 | – | – | – | N#Cc1c(SCc2csc(-c3ccc(Cl)cc3)n2)nc(N2CC(O)C2)c(C#N)c1-c1cncs1 [Example 16, 2-([2-(4-Chlorophenyl)-1,3-thiazol-4-yl]methylsulfanyl)-6-(3-hydroxyazetidin-1-yl)-4-(1,3-thiazol-5-yl)pyridine-3,5-dicarbonitrile]
5.52 | 0.5 | 5.74 | – | – | – | N#Cc1c(SCc2coc(-c3ccc(Cl)cc3)n2)nc(N2CC(O)C2)c(C#N)c1-c1nccs1 [Example 20]
6.42 | 0.5 | 5.52 | – | – | – | N#Cc1c(NC[C@H](O)CO)nc(SCc2csc(-c3ccc(Cl)cc3)n2)c(C#N)c1-c1nccs1 [Example 21]
5.61 | 0.6 | 5.89 | – | – | – | N#Cc1c(SCc2csc(-c3ccc(Cl)cc3)n2)nc(N2CC(O)C2)c(C#N)c1-c1nccs1 [Example 22]
5.19 | 1.1 | 5.19 | – | – | – | N#Cc1c(SCc2csc(-c3ccc(Cl)cc3)n2)nc(N2CC(O)C2)c(C#N)c1-c1cc[nH]n1 [Example 27]
– | – | – | – | 6.57 | 8.44 | CNC(=O)c1cc(CSc2nc(NCCO)c(C#N)c(-c3cc[nH]n3)c2C#N)ccn1 [Example 29]
5.70 | 1.9 | 5.85 | – | – | – | CC(O)Cn1ccc(-c2c(C#N)c(N)nc(SCc3csc(-c4ccc(Cl)cc4)n3)c2C#N)n1 (centres unmarked) [Example 30, 2-Amino-6-([2-(4-chlorophenyl)-1,3-thiazol-4-yl]methylsulfanyl)-4-[1-(2-hydroxypropyl)-1H-pyrazol-3-yl]pyridine-3,5-dicarbonitrile]
6.74 | 0.3 | 7.47 | – | – | – | N#Cc1c(N)nc(SCc2csc(-c3ccc(Cl)cc3)n2)c(C#N)c1-c1cccs1 [Example 32, 2-Amino-6-({[2-(4-chlorophenyl)-1,3-thiazol-4-yl]methyl}sulfanyl)-4-thiophen-2-ylpyridine-3,5-dicarbonitrile]
7.06 | 0.05 | 7.55 | – | – | – | N#Cc1c(N)nc(SCc2cccc(C(N)=O)c2)c(C#N)c1-c1cccs1 [Example 37, 3-({[6-Amino-3,5-dicyano-4-(2-thienyl)pyridin-2-yl]thio}methyl)benzamide]
5.52 | 0.5 | 5.52 | – | – | – | N#Cc1c(SCc2csc(-c3ccc(Cl)cc3)n2)nc(N2CC[C@@H](O)C2)c(C#N)c1-c1cncs1 [Example 47, 2-({[2-(4-Chlorophenyl)-1,3-thiazol-4-yl]methyl}sulfanyl)-6-[(3R)-3-hydroxypyrrolidin-1-yl]-4-(1,3-thiazol-5-yl)pyridine-3,5-dicarbonitrile]
